Data on four molecules can be found in patent US20230407243A1, “GENETIC PLATFORM TO INVESTIGATE THE FUNCTIONS OF BACTERIAL DRUG EFFLUX PUMPS” (priority 2022, published 2023).

One test has as its system K-12 gyrB (pCA24N). Kind of test: MIC of strains harboring ASKA plasmids. It is filed as cell-based. To be noted: Escherichia coli, 0.1 mM IPTG.
The test system of the next test is ΔtolC gyrB (pCA24N). It is filed as cell-based, Escherichia coli.
Test [1] concerns EKO-35-Pore expressing the P. aeruginosa pump mexCD. Kind of test: Checkerboard synergy (FICI), porinated strain. It is filed as cell-based, Escherichia coli. The procedure, abridged: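 Read-out was OD600, the MIC being the lowest concentration without growth in a CLSI checkerboard run in MHB II. Each drug's MIC in combination was divided by its MIC alone and the two ratios summed as FICI. Cut-offs: <0.5 synergy, >0.5–1.0 additive, >1.0–2.0 indifferent, >2.0 antagonism.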

The test system of the next test is ΔtolC wcaC (pCA24N). Kind of test: microbe, parasite or virus in culture. The protocol: (§1) To enable comparison between efflux production in different genetic backgrounds, each efflux pump-encoding gene was also integrated into the genome of the wild-type BW25113 strain, the single gene deletion mutant from the Keio Collection, and EKO-35. Strains of interest were propagated on LB agar at 37° C. Cell inoculum was prepared using the colony resuspension method and applied to a 96-well well plate (VWR) in technical duplicate, and the minimum inhibitory concentrations were determined according to Clinical & Laboratory Standards Institute (CLSI) protocols in MHB II (Patel J. B. et al, 2015). The plates were incubated for 18 h (Multitron Shaker, Infors HT) at 37° C. with aeration at 900 rpm. The plates were equilibrated to room temperature before the OD600 nm was measured using a BioTek Synergy H1 microplate reader. For interplay profiling, blank subtracted OD600 nm values >0.1 were considered to represent growth.
(§2) To assess fitness of EKO-35 expressing wild-type copies of the genes identified to harbor nonsynonymous mutations, Inventors obtained clones from the E. coli ASKA library (Kitagawa, M. et al., 2005) with the rspA, tufA, pitA, wcaC, gyrB, and yjfC genes carried on plasmids, with gene expression under the control of an IPTG-inducible promoter. The ASKA plasmids were verified using Sanger sequencing and gene expression was induced with 0.1 mM IPTG. In the wild-type E. coli K-12 strain, the plasmids were maintained with 25 μg/mL chloramphenicol.

A further test relates to K-12 wcaC (pCA24N). Kind of test: microbe, parasite or virus in culture. To be noted: Escherichia coli, 0.1 mM IPTG. How it is done: as §1, §2
The mark [2] stands for this setting: EKO-35 mexCD Pore, NMP + antibiotic.
[3] abbreviates: EKO-35 mexCD Pore, PAβN + antibiotic.
Where [4] appears, read: strain EKO-35 mexCD Pore, NMP + antibiotic.

Values after ≈ are worked out from the molar mass of the structure shown.

`CO[C@@H]1[C@@H](OC(N)=O)[C@@H](O)[C@H](Oc2ccc3c(O)c(NC(=O)c4ccc(O)c(CC=C(C)C)c4)c(=O)oc3c2C)OC1(C)C` [novobiocin]: the values for the MIC in the test with K-12 gyrB (pCA24N) (Chlor + (25 μg/mL)), in the test on K-12 gyrB (pCA24N) (Chlor −) and with ΔtolC gyrB (pCA24N) were 100 µg/mL, 400 µg/mL and 12.5 µg/mL (≈ 20.4 µM), respectively.

Take “phenylalanine-arginine-β-naphthylamide [PAβN]”: the “PABN MICa Alone” value in test [1] (EKO-35 mexCD Pore, PAβN alone, one value per checkerboard) was determined as 64 µg/mL. Also, the “PABN MICa Combined” value in test [1] (EKO-35 mexCD Pore, with Ciprofloxacin) turned out to be 16 µg/mL; in test [1] (EKO-35 mexCD Pore, with Erythromycin), 8 µg/mL.

In the case of `CC[C@H]1OC(=O)[C@H](C)[C@@H](O[C@H]2C[C@@](C)(OC)[C@@H](O)[C@H](C)O2)[C@H](C)[C@@H](O[C@@H]2O[C@H](C)C[C@H](N(C)C)[C@H]2O)[C@](C)(O)C[C@@H](C)C(=O)[C@H](C)[C@@H](O)[C@]1(C)O` [erythromycin], the Effect entry in test [1] (setting [2]) is “Additive”; in test [1] (setting [3]), “Synergistic”; in test [1] (setting [4]) it was “Additive (additive (FICI >0.5-1.0))”. Further, the FICI stood at 0.565 in test [1] (setting [2]), 0.385 in test [1] (setting [3]) and 0.565 in test [1] (setting [4]). For the same molecule, the “MICb Alone” value stood at 0.5 µg/mL in test [1] (EKO-35 mexCD Pore, antibiotic alone (PAβN checkerboard)) and 2 µg/mL in test [1] (strain EKO-35 mexCD Pore, antibiotic alone). The “MICb Combined” value was 0.13 µg/mL in test [1] (EKO-35 mexCD Pore, antibiotic in combination with PAβN) and 0.13 µg/mL in test [1] (strain EKO-35 mexCD Pore, antibiotic in combination with NMP).

On to `COc1cc(Cc2cnc(N)nc2N)cc(OC)c1OC` [trimethoprim], for which the MIC was found to be 0.195 µg/mL in the test on ΔtolC wcaC (pCA24N) (Escherichia coli); 0.195 µg/mL in the test with ΔtolC wcaC (pCA24N) (ΔtolC wcaC, Chlor +, 0.1 mM IPTG); 0.195 µg/mL in the test with K-12 wcaC (pCA24N) (Chlor + (25 μg/mL)); 1.56 µg/mL in the test on K-12 wcaC (pCA24N) (Chlor −).
